In the CheMixHub viscosity set:
± gives the uncertainty stated by the source.

Experiment: xn = mol fraction of the nth substance listed

Brc1ccccc1 + CCOC(C)=O
viscosity [mPa·s], 101 kPa
Settings	298.15 K	308.15 K
x2 = 0.0463	0.997 ± 0.006	0.926 ± 0.006
x2 = 0.1501	0.906 ± 0.006	0.844 ± 0.006
x2 = 0.2468	0.829 ± 0.006	0.775 ± 0.005
x2 = 0.3482	0.756 ± 0.005	0.707 ± 0.005
x2 = 0.4571	0.686 ± 0.005	0.641 ± 0.005
x2 = 0.5073	0.656 ± 0.005	0.612 ± 0.005
x2 = 0.5465	0.633 ± 0.005	0.591 ± 0.005
x2 = 0.6468	0.58 ± 0.005	0.539 ± 0.005
x2 = 0.75	0.53 ± 0.005	0.49 ± 0.004
x2 = 0.848	0.487 ± 0.004	0.447 ± 0.004
x2 = 0.9469	0.448 ± 0.004	0.407 ± 0.004

O=C1CCCO1 + O
viscosity [mPa·s]
Settings	298.15 K	303.15 K	308.15 K	313.15 K	318.15 K	323.15 K
101 kPa, x1 = 0.0503	1.233 ± 0.0098	1.096 ± 0.009	0.9821 ± 0.0083	0.8569 ± 0.0076	0.8041 ± 0.0073	–
101 kPa, x1 = 0.0995	1.481 ± 0.011	1.312 ± 0.01	1.171 ± 0.0093	1.031 ± 0.0085	0.9551 ± 0.0081	–
101 kPa, x1 = 0.1997	1.783 ± 0.013	1.577 ± 0.012	1.407 ± 0.011	1.248 ± 0.0098	1.143 ± 0.0092	–
101 kPa, x1 = 0.2994	1.896 ± 0.014	1.686 ± 0.013	1.509 ± 0.011	1.346 ± 0.01	1.232 ± 0.0098	–
101 kPa, x1 = 0.3997	1.915 ± 0.014	1.711 ± 0.013	1.538 ± 0.012	1.379 ± 0.011	1.266 ± 0.01	–
101 kPa, x1 = 0.499	1.875 ± 0.014	1.688 ± 0.013	1.528 ± 0.012	1.379 ± 0.011	1.273 ± 0.01	–
101 kPa, x1 = 0.5994	–	1.637 ± 0.013	1.493 ± 0.012	1.356 ± 0.011	1.26 ± 0.01	–
101 kPa, x1 = 0.701	1.754 ± 0.014	1.603 ± 0.013	1.471 ± 0.012	1.343 ± 0.011	1.255 ± 0.011	–
101 kPa, x1 = 0.7995	1.716 ± 0.014	1.578 ± 0.013	1.457 ± 0.012	1.337 ± 0.011	1.256 ± 0.011	–
101 kPa, x1 = 0.8996	1.697 ± 0.014	1.569 ± 0.013	1.457 ± 0.013	1.343 ± 0.012	1.267 ± 0.011	–
101 kPa, x2 = 0.3	1.645 ± 0.014	–	–	–	–	–
101 kPa, x2 = 0.9	1.385 ± 0.012	–	–	–	–	–
101.33 kPa, x2 = 0.0898	–	1.56 ± 0.013	–	1.339 ± 0.011	–	1.163 ± 0.0093
101.33 kPa, x2 = 0.2337	–	1.595 ± 0.012	–	1.349 ± 0.011	–	1.159 ± 0.009
101.33 kPa, x2 = 0.6207	–	1.674 ± 0.011	–	1.349 ± 0.01	–	1.112 ± 0.0083
101.33 kPa, x2 = 0.9031	–	1.257 ± 0.0079	–	1.005 ± 0.0076	–	0.8246 ± 0.0061
